The test system of test [1] is peritoneal macrophages. Description: Release (secretion) of lysosomal enzymes from macrophages during phagocytosis. The class given is cell-based. Particulars: Rattus norvegicus, Peritoneal macrophage, 0.5 h, serum-treated zymosan, 37° C., 30 minutes. Here is the method:
(§1) (2) Assay of release of lysosomal enzymes from polymorphonuclear (PMN) leukocytes or macrophages during phagocytosis
Preparation of rat peritoneal macrophages was carried out according to the method described by D. Gemsa et al in "Journal of Clinical Investigation",vol. 52, 812 (1973).
(§2) Lysosomal enzymes were released from PMN leukocytes exposed to homologous serum-treated zymosan particles (0.5-3 μ in diameter, Sigma) according to the method described by M. Nakanishi et al in "Yakugaku Zasshi (Journal of the Pharmaceutical Society of Japan)", vol. 95, 672 (1975).
(§3) The effects of test compounds on the enzyme release were studied by determining the release of lysosomal marker enzymes such as aryl sulfatase.
(§4) The test compounds were dissolved in ethanol. The test solution (10 μl) or solvent (control, 10 μl) was added to a 10-ml conical flask containing 2.0 ml of the PMN leukocyte or macrophage suspension. The mixture was kept at 25° C. for 10 minutes. Immediately after the addition of 50 μl of serum-treated zymosan particles (10 mg/ml) to the above mixture, 1.0-ml aliquots were removed to determine the initial activity of free enzymes in the supernatant. The residual mixtures were incubated at 37° C. for 30 minutes with shaking at an agitation cycle of 75/min, and centrifuged at 350 g for 10 minutes at 4° C. The supernatant thus obtained was used for the measurement of the marker enzymes released from PMN leukocytes or macrophages during phagocytosis. The total activity of these enzymes was assayed using the 27,000 g supernatant obtained by centrifuging the PMN leukocytes or macrophages incubated at 37° C. for 30 minutes in 0.2% (v/v) Triton X-100 - Hanks' solution.

For test [2], the system named is Leukocyte migration. Nature of the test: Leukocyte migration in the rat (CMC pouch). The class given is in vivo, rat (male Donryu). Particulars: compound administered into the CMC pouch; for Leukocyte Migration ED50, 5 hr: 5 hr after CMC injection; for Leukocyte Migration ED50, 7 hr: 7 hr after CMC injection. The procedure: (1) Leukocyte migration in the rat
The test was performed according to the method described by H. Ishikawa et al in "Yakugaku Zasshi (Journal of the Pharmaceutical Society of Japan)", vol.
Male Donryu rats weighing about 150 g were divided into groups of 4 to 5 animals each. Five ml of 2% suspension of carboxymethylcellulose (CMC) in physiological saline, which was treated by autoclaving at 120° C. for 15 minutes, was injected subcutaneously in the supra-scapular area. Five and 7 hours later, 0.1 ml of fluid in the CMC pouch was collected and mixed with 3 ml of 0.02% brilliant cresyl blue solution in phosphate buffer (0.002M, pH 7.0). The suspension was put in a Burker chamber and the emigrating leukocytes were counted under a microscope (magnification 400x). The percent inhibition was calculated as compared with the count in the control group. Compounds tested were administered into the CMC pouch immediately after the injection of the CMC suspension.

Test [3] relates to polymorphonuclear (PMN) leukocytes. Nature of the test: Release (secretion) of lysosomal enzymes from PMN leukocytes during phagocytosis. It is filed as cell-based. As to conditions: Rattus norvegicus, 0.5 h, serum-treated zymosan, 37° C., 30 minutes. Here is the method: as §1
Preparation of rat PMN leukocytes was carried out according to the method described by M. Nakanishi et al in "Yakugaku Zasshi (Journal of the Pharmaceutical Society of Japan)", vol. 95, 1027 (1975).
as §2, §3, §4

For test [4], the system named is Adjuvant induced arthritis. Description: Adjuvant induced arthritis in the rat (prophylactic effect). The class given is in vivo, rat (male Wistar). Here is the method:
(3) Adjuvant induced arthritis in the rat
The test was performed according to the method described by B. B. Newbould in "British Journal of Pharmacology", vol. 21, 127 (1963).
Male Wistar rats weighing 180 to 210 g were divided into groups of 8 animals each. The arthritic syndrome was induced by an intradermal injection into the right hind paw of 0.1 ml of a suspension of dead tubercle bacilli (6 mg/ml) in liquid paraffin. Swellings in the hind feet were measured with the fluid displacement method at 4, 10, 15, 18, 21 and 28 days after the adjuvant inoculation. Compounds tested were orally administered daily from the adjuvant inoculation day (day 1) to day 20.

[5] abbreviates: read-out: Secretion of Lysosomal Enzyme IC20, Macrophage, Macrophage.
Setting [6] is: Leukocyte, read-out: Secretion of Lysosomal Enzyme IC20, PMN leukocyte, PMN leukocyte.
Where [7] appears, read: po, read-out: Prophylactic Effect on Adjuvant Arthritis MED (minimum effective dose).
Setting [8] is: Macrophage, read-out: Secretion of Lysosomal Enzyme IC20, Macrophage.
[9] abbreviates: PMN leukocyte, read-out: Secretion of Lysosomal Enzyme IC20, PMN leukocyte.
Where [10] appears, read: oral, daily from day 1 to day 20, read-out: Prophylactic Effect on Adjuvant Arthritis MED (minimum effective dose).

Read-outs that look alike come from different tables or passages of the source.

Usually IC20 stands for the point of the concentration-response curve where the effect stands at 20%.

As to `CC(=O)Oc1ccccc1C(=O)O` [AcetylsalicylicAcid, Acetylsalicylic Acid, reference compound], the IC20 in test [1] (setting [5]) came out at 100000 nM. Also, in test [2], the “Leukocyte Migration ED50, 5 hr” value is listed as 20 mg/rat and the “Leukocyte Migration ED50, 7 hr” value is on record as greater than 25 mg/rat. Further, the 20% effect concentration (IC20) in test [3] (setting [6]) is 100 nM. The minimal effective dose in test [4] (setting [7]) was determined as 100 mg/kg.

For `CC(C)(S)[C@@H](N)C(=O)O` [D-Penicillamine, D-penicillamine, reference compound], the IC20 worked out at 1000 nM in test [1] (setting [5]) and 10000 nM in test [3] (setting [6]). The “Leukocyte Migration ED50, 5 hr” value in test [2] is greater than 40 mg/rat. Moreover, the “Leukocyte Migration ED50, 7 hr” value in test [2] is greater than 40 mg/rat. The minimal effective dose in test [4] (setting [7]) is greater than 200 mg/kg.

On to `CC1(C)SC(=S)N(Cc2ccccc2)C(=O)C1NC(=O)c1ccc(Cl)cc1` (stereo not shown) [Test Compound A, 3-benzyl-5-(p-chlorobenzamido)-6,6-dimethyl-2-thioxo-tetrahydro-2H-1,3-thiazin-4-one], for which, in test [1] (setting [8]), the IC20 is greater than 10000 nM. Besides, in test [2], the “Leukocyte Migration ED50, 5 hr” value was 15 mg/rat and the “Leukocyte Migration ED50, 7 hr” value was found to be 15 mg/rat. Further, in test [3] (setting [9]), the IC20 came to 200 nM. The minimal effective dose in test [4] (setting [10]) worked out at 50 mg/kg.

In the case of `CN(C)CCN1C(=O)C(NC(=O)c2ccc(Cl)cc2)C(C)(C)SC1=S` (stereo not shown) [Test Compound B, 5-(p-Chlorobenzamido)-3-(2-dimethylaminoethyl)-6,6-dimethyl-2-thioxotetrahydro-2H-1,3-thiazin-4-one], the IC20 in test [1] (setting [8]) worked out at 200 nM; in test [3] (setting [9]), 500 nM. The “Leukocyte Migration ED50, 5 hr” value in test [2] stood at 2 mg/rat. In addition, in test [2], the “Leukocyte Migration ED50, 7 hr” value was determined as 2 mg/rat. The minimal effective dose in test [4] (setting [10]) came to 25 mg/kg.

`CN(C)CCN1C(=O)C(NC(=O)c2ccc(Cl)cc2)C(C)(C)SC1=S.Cc1ccc(S(=O)(=O)O)cc1` (stereo not shown) [Test Compound C, 5-(p-Chlorobenzamido)-3-(2-dimethylaminoethyl)-6,6-dimethyl-2-thioxotetrahydro-2H-1,3-thiazin-4-one p-toluenesulfonate]: the figures for the IC20 in test [1] (setting [5]) and in test [3] (setting [6]) were 100 nM and 1000 nM, respectively. Further, the “Leukocyte Migration ED50, 5 hr” value in test [2] amounted to 3.5 mg/rat. The “Leukocyte Migration ED50, 7 hr” value in test [2] was 5 mg/rat.

For the compound `CN(C)CCN1C(=O)C(NC(=O)c2ccc(NS(C)(=O)=O)cc2)C(C)(C)SC1=S.Cc1ccc(S(=O)(=O)O)cc1` (stereo not shown) [Test Compound D, 3-(2-dimethylaminoethyl)-5-(p-methanesulfonamidobenzamido)-6,6-dimethyl-2-thioxo-tetrahydro-2H-1,3-thiazin-4-one p-toluenesulfonate], in test [1] (setting [5]), the IC20 was 500 nM. Besides, in test [2], the “Leukocyte Migration ED50, 5 hr” value came out at 2 mg/rat and the “Leukocyte Migration ED50, 7 hr” value is 5 mg/rat. Also, the IC20 in test [3] (setting [6]) is 300 nM. Besides, the minimal effective dose in test [4] (setting [7]) was 10 mg/kg.

For the compound `CN(C)CCNC(=S)SC(C)(C)C(NC(=O)c1ccc(Cl)cc1)C(=O)O` (stereo not drawn) [Test Compound E, n-(p-Chlorobenzoyl)-S-(2-dimethylaminoethylthiocarbamoyl)-penicillamine], in test [1] (setting [8]), the IC20 was found to be 100 nM. In test [2], the “Leukocyte Migration ED50, 5 hr” value came out at 2.7 mg/rat and the “Leukocyte Migration ED50, 7 hr” value was 3.6 mg/rat. Besides, the IC20 in test [3] (setting [9]) was determined as 1000 nM. In addition, in test [4] (setting [10]), the minimal effective dose was found to be 10 mg/kg.

(Values after US4169899A, “Penicillamine compounds” (Yoshitomi Pharmaceutical Industries, Ltd., priority 1977, dated 1979).)
